Measured values reported in paper PMC10813753 (Biology, 2024).
Structures can show the parent of a compound that is named as a salt. Where two headings read alike, the source gives them in different places.

What was measured:
[1] = system: F10T (DNA, hairpin, Sp18 (hexaethylene glycol type spacer) between 10 and 11) TATAGCTATATAGCTATA; assay: FRET melting (renaturing curve); details: 100 mM LiCl; 10 mM Li-cacodylate; 0.2 μM DNA; 10 μM compound
[2] = system: Tel22 (DNA, G4) AGGGTTAGGGTTAGGGTTAGGG; assay: circular dichroism titration; details: 10 mM K+, 90 mM Li+; 10 mM Li-cacodylate pH 7.3, 25 °C; 4 μM DNA, DNA/ligand 1:1 to 1:5
[3] = system: F21T (DNA, G4) GGGTTAGGGTTAGGGTTAGGG; assay: FRET melting (renaturing curve); details: 10 mM K+, 90 mM Li+; 10 mM Li-cacodylate pH 7.3; 0.2 μM DNA; 10 μM compound
[4] = system: ds17 (DNA, duplex) GGGTTACTACGAACTGG/CCAGTTCGTAGTAACCC; assay: equilibrium dialysis (non-competition); details: 100 mM KCl, 10 mM potassium phosphate pH 7.2, 22 °C, 2 μM ligand, 75 μM base pairs, apparent, per base pair
[5] = system: Tel22 (DNA, G4) AGGGTTAGGGTTAGGGTTAGGG; assay: equilibrium dialysis (non-competition); details: 100 mM KCl; 10 mM potassium phosphate pH 7.2, 22 °C; 2 μM ligand, 75 μM tetrads; apparent; per tetrad; per base
[6] = system: DU145 cells (prostate tumor); assay: MTT viability assay DU145; assay type: cell-based, human
Protocol: (§1) A panel of five tumor cell lines and two normal cell lines was used to preliminarily test the cytotoxicity of compounds 1–4, and the experiments were conducted as previously reported. All human cell lines were acquired from American Type Culture Collection (ATCC): tumor PC-3 and DU145 (prostate), HeLa (cervix), MCF7 (breast) and HT29 (colorectal) and healthy HFF-1 (fibroblast) and RWPE-1 (prostate). The cell catalogue reference and culture media used in the experiments were CRL-1435^TM, RPMI (PC-3), HTB-81™, RPMI (DU145), CCL-2^TM, DMEM (HeLa), HTB-22^TM, DMEM (MCF-7), HTB-38^TM, modified McCoy’s 5a medium, Catalogue No. 30-2007 (HT29), SCRC-1041^TM, DMEM (HFF-1) and CRL-11609^TM, Keratinocyte-SFM (RWPE-1). Culture media were purchased from Merck: RPMI-1640, DMEM + 10% FBS (Fetal Bovine Serum) + […] (penicillin/streptomycin/amphotericin B). Media and supplements for RWPE-1 were from ThermoFisher (17005075, Madrid, Spain). MCF7 cells were additionally supplemented with insulin (0.001 mg/mL in 500 mL media). Cells were kept at 37 °C (5% CO2), and culture media were renewed three times per week. When the cells reached 80–100% confluence, they were trypsinized and centrifuged, and the concentration was adjusted to each experiment. Cells were seeded at a density of ~10,000 cells/well into 24-well plates. The cells were treated with ligands 1–4 or the cytotoxic agents PhenQE8, PhenDC3 or cisplatin at different concentrations (10 nM–100 μM). Compound solutions were freshly prepared using the appropriate culture medium. Triplicate experiments were run. For MTT viability assays, after 72 h incubation, 50 μL of MTT (5 mg/mL) was added, and an additional incubation of 4 h was allowed. The medium in each well was then replaced by DMSO, and the absorbance was measured at 570 nm using an ELISA plate reader. Absorbances were normalized using negative controls (untreated cells, in triplicate, with a maximum of 0.9% DMSO content). Dose–response curves were obtained by plotting the percentage of viable cells versus logarithmic compound concentration. IC50 values were determined using Kaleidagragh^TM (3.52) software by adjusting the data to Equation 1/(1 + 10^(m2*(log(m1) − x))); m1 = 0.000003; m2 = 1.

[7] = system: MCF-7 cells (breast); assay: MTT viability assay MCF-7; assay type: cell-based, human
Protocol: as §1

[8] = system: PC-3 cells (prostate tumor); assay: MTT viability assay PC-3; assay type: cell-based, human; details: MTT, 72 h
Protocol: as §1

[9] = system: HFF-1 cells (healthy fibroblasts); assay: MTT viability assay HFF-1; assay type: cell-based, human
Protocol: as §1

[10] = system: HeLa cells (cervix); assay: MTT viability assay HeLa; assay type: cell-based, human; details: 72 h
Protocol: as §1

[11] = system: RWPE-1 cells (healthy prostate); assay: MTT viability assay RWPE-1; assay type: cell-based, human
Protocol: as §1

[12] = system: G4 Tel22 telomeric quadruplex DNA; set-up: method as in PMID 33451070; details: previously reported ref 29; cited from earlier work
[13] = system: Calf thymus CT DNA; details: cited from earlier work
[14] = system: HT29 cells (colorectal); assay: MTT viability assay HT29; assay type: cell-based, human
Protocol: as §1, with “Dose–response curves were obtained by plotting the percentage of viable cells versus logarithmic compound concentration.” left out

[15] = system: PC-3, DU145, HeLa, MCF-7, HT29, HFF-1 and RWPE-1 cells; assay: MTT viability assay, whole cell panel; assay type: cell-based, human; details: 72 h, up to 100 μM
Protocol: A panel of five tumor cell lines and two normal cell lines was used to preliminarily test the cytotoxicity of compounds 1–4, and the experiments were conducted as previously reported. All human cell lines were acquired from American Type Culture Collection (ATCC): tumor PC-3 and DU145 (prostate), HeLa (cervix), MCF7 (breast) and HT29 (colorectal) and healthy HFF-1 (fibroblast) and RWPE-1 (prostate). The cell catalogue reference and culture media used in the experiments were CRL-1435^TM, RPMI (PC-3), HTB-81™, RPMI (DU145), CCL-2^TM, DMEM (HeLa), HTB-22^TM, DMEM (MCF-7), HTB-38^TM, modified McCoy’s 5a medium, Catalogue No. 30-2007 (HT29), SCRC-1041^TM, DMEM (HFF-1) and CRL-11609^TM, Keratinocyte-SFM (RWPE-1). Culture media were purchased from Merck: RPMI-1640, DMEM + 10% FBS (Fetal Bovine Serum) + […] (penicillin/streptomycin/amphotericin B). Media and supplements for RWPE-1 were from ThermoFisher (17005075, Madrid, Spain). […] The medium in each well was then replaced by DMSO, and the absorbance was measured at 570 nm using an ELISA plate reader. Absorbances were normalized using negative controls (untreated cells, in triplicate, with a maximum of 0.9% DMSO content). […] IC50 values were determined using Kaleidagragh^TM (3.52) software by adjusting the data to Equation 1/(1 + 10^(m2*(log(m1) − x))); m1 = 0.000003; m2 = 1.

[16] = system: telomeric G4 sequence F21T; assay: FRET-based DNA melting assay, telomeric G4 F21T; assay type: binding, human; details: 10 μM compound, 0.2 μM F21T, renaturing process, K+ buffer
Protocol: FRET DNA melting assays were conducted following standard reported procedures. Briefly, the employed oligonucleotides F21T (5′-FAM—(GGG TTA)3GGG—TAMRA-3′) and F10T (5′-FAM—TAT AGC TA TA/Sp18/TA GCT ATA—TAMRA-3′) were dissolved in buffer at 0.25 μM concentration and annealed by heating at 90 °C for 5 min, and then immediately cooling to 0 °C, in the case of F21T, or slowly to rt (F10T) during a period of 3 hours. The solutions were allowed to stand at 4 °C at least overnight.
Tested compounds 1–4 were dissolved in water with up to a maximum 10% DMSO (50 μM stock solution). Each stock solution was then gradually diluted to reach the final concentrations in the assay from 0 to 10 μM and a fixed 0.2 μM concentration of target sequences F21T or F10T. The buffer used for G4 sequence F21T was 10 mM KCl, 90 mM LiCl and 10 mM Li-cacodylate, pH 7.3. The buffer employed for F10T was 100 mM LiCl and 10 mM Li-cacodylate.
The melting process program consisted of an incubation step at 24 °C for 5 min and then a temperature ramp (1 °C/min rate) with fluorescence recordings at every degree up to 95 °C. Subsequently, the microplate with the samples (50 μL) was incubated for 5 min at 96 °C and then gradually cooled by using a temperature ramp of −1 °C/min, with fluorescence measurements at every degree down to 25 °C. The melting and refolding (or renaturing) curves were registered based on the change in emission of the FAM (6-carboxyfluorescein) fluorophore, excited at 492 nm and emitting at 516 nm. Melting temperature values (Tm) were determined from replicate experiments using normalized curves and considering mid-transition T1/2 temperatures.

Structure (SMILES) | ΔTm [3] | IC50 ([6]; Homo sapiens, DU-145, 72 h) | IC50 ([7]; Homo sapiens, MCF7, 72 h) | IC50 ([8]; Homo sapiens, PC-3, 72 h) | IC50 ([9]; Homo sapiens, HFF-1, 72 h) | IC50 ([10]; Homo sapiens, HeLa) | IC50 ([11]; Homo sapiens, RWPE-1, 72 h) | further results
NC(=S)N/N=C/c1ccc2ccc3ccc(/C=N/NC(N)=S)nc3c2n1 (as salt: phosphate) [compound 2, 2,2′-(1,10-Phenanthroline-2,9-diyl)-bis(methylene)-bis(hydrazine-1-carbothioamide) Hexafluorophosphate Salt] |  |  |  |  |  |  |  | melting point: > 240 °C (dec.)
NC(=S)N/N=C/c1ccc2ccc3ccc(/C=N/NC(N)=S)nc3c2n1 [1] | ~ 12 °C |  |  |  |  |  |  | ΔTm [1]: ~ 0 °C; binding [2]: yes; Kapp [4]: 0.06 ± 0.01 × 10^5 M^-1; Kapp [5]: 1.1 ± 0.1 × 10^5 M^-1
NC(=S)N/N=C/c1ccc2ccc3ccc(/C=N/NC(N)=S)nc3c2n1 [2] | ~ 15 °C |  |  |  |  |  |  | 
NC(=S)N/N=C/c1ccc2ccc3ccc(/C=N/NC(N)=S)nc3c2n1 [3] | ~ 10 °C |  |  |  |  |  |  | 
C[n+]1cc(NC(=O)c2ccc3ccc4ccc(C(=O)Nc5cc6ccccc6[n+](C)c5)nc4c3n2)cc2ccccc21 [PhenDC3] |  | 7.3 ± 1 µM | 2.4 ± 0.8 µM | 55.5 ± 3.1 µM | 32.2 ± 4.2 µM | > 100 µM | 8.2 ± 1.1 µM | 
N=C(N)N/N=C/c1ccc2ccc3ccc(/C=N/NC(=N)N)nc3c2n1 [PhenQE8] |  | 22.7 ± 1.1 µM | 44.9 ± 9.2 µM | 5.6 ± 0.3 µM | 170 ± 23.3 µM | 16.2 ± 1.6 µM | 38.8 ± 0.5 µM | binding selectivity quadruplex/dsDNA [12]: 90 fold; viscosity slope, (η/ηo)^1/3 versus r ([13]; determined in previous studies ref 29): ca. 0.24
N.N.[Cl][Pt][Cl] [cisplatin] |  |  |  |  |  |  |  | IC50 ([6]; 72 h): 8.4 ± 1.5 µM; IC50 ([14]; 72 h): 86.6 ± 7 µM; IC50 ([7]; 72 h): 96.5 ± 6.7 µM; IC50 [8]: 12.8 ± 0.9 µM; IC50 ([9]; 72 h): 36.6 ± 4.4 µM; IC50 [10]: 18 ± 1.9 µM; IC50 ([11]; 72 h): 16.4 ± 1.4 µM
C(=N\Nc1nc(-c2ccccc2)cs1)/c1ccc2ccc3ccc(/C=N/Nc4nc(-c5ccccc5)cs4)nc3c2n1 [compound 4, 2,9-bis((E)-(2-(4-Phenylthiazol-2-yl)hydrazineylidene)methyl)-1,10-phenanthroline] | ~ 3 °C | > 100 µM | > 100 µM | > 100 µM | > 100 µM | > 100 µM | > 100 µM | ΔTm [1]: ~ 0 °C; IC50 ([14]; Homo sapiens, HT-29, 72 h): > 100 µM; melting point: > 250 °C (dec.); cytotoxicity in all cell lines tested [15]: non-cytotoxic; ΔTm of telomeric G4 F21T [16]: ~ 3 °C
CC[n+]1c(-c2ccccc2)c2cc(N)ccc2c2ccc(N)cc21 [ethidium bromide] |  |  |  |  |  |  |  | viscosity slope, (η/ηo)^1/3 versus r ([13]; classical monointercalating agent ref 50, 51): ~ 1.0
